In one series the target is T1, CTSB protease (Homo sapiens, UniProt P07858).
T1 construct: purchased Sino Biological Inc. 10483-H08H-10
The experiment in a line: CTSB protease activity inhibition in vitro (z-Arg-Arg-AMC substrate). To be noted: for Inhibition rate (%) of the CTSB protease activity / inhibition at 1000 µM: 1 mM of each compound; for inhibition at 1000 µM: read-out: Inhibition rate (%) of the CTSB protease activity. The series is classed as biochemical.

Series [1] deals with Phsp-4::gfp stress-response reporter. The experiment in a line: Phsp-4::gfp stress response assay in unexposed posterior region after localized UV irradiation (LUI). The following applies: zcls4 L1 larvae treated with 1 mM compound for 48 h (FIG. 17). The series is classed as in vivo, C. elegans.
The target in series [2] is T2, C. elegans CPR-4 protease (Caenorhabditis elegans, UniProt P43508).
T2 construct: a cpr-4 cDNA fragment encoding residues 16-336 was PCR amplified from the full-length cpr-4 cDNA clone; GST (N, cleaved yes); made in house; host or cells: Escherichia coli BL21(DE3)
T2 sequence (P43508 81-335): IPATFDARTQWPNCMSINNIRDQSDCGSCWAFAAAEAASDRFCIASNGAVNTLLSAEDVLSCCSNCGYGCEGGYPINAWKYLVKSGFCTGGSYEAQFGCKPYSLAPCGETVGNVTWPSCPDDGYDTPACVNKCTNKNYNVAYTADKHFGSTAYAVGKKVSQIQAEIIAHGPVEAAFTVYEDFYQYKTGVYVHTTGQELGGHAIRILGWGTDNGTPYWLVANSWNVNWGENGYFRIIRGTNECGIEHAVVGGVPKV
The experiment in a line: CPR-4 protease activity inhibition in vitro (z-Arg-Arg-AMC substrate). The series is classed as biochemical. To be noted: 1 mM of each compound; read-out: Inhibition rate(%) of the C. elegans CPR-4 protease activity.

In a further series the test system is N2 animals. As to the kind of experiment: Embryonic lethality assay in liquid media with purified proteins. The series is classed as in vivo, C. elegans. The following applies: 2.8 μM tCPR-4 proteins or 0.27 μM rhCTSB, 48 hours. The method, then:
Embryonic lethality and larval arrest assays. For embryonic lethality assays caused by direct irradiation, after irradiated with 100 J/m^2 UV or 500 Gy gamma ray, gravid adults were placed on NGM plates to lay eggs for 4 hours at 25° C. and then removed from the plates. For embryonic lethality assays in liquid media, L4 larvae were cultured in conditioned medium or S-Medium containing the purified proteins at 20° C. for 48 hours, transferred to fresh NGM plates from the liquid media, and allowed to lay eggs for 4 hours at 25° C., before the adult animals were removed. For embryonic lethality assays in transgenic animals expressing CPR-4 in the pharynx, transgenic gravid adults at 24 hours post L4 were placed on NGM plates to lay eggs for 4 hours at 25° C. and then removed from the plates.

For series [3], the system named is germ cell corpses in ced-1(e1735) animals. The experiment in a line: Germ cell corpse assay with recombinant proteins in liquid culture. The following applies: 2.8 μM tCPR-4 proteins or 0.27 μM rhCTSB, L4 larvae, 48 hours. The format is in vivo, C. elegans. On the procedure:
Growing C. elegans animals in 96-well plates. HB101 bacteria were mixed with 100 μL conditioned medium (0.1 μg/μL) or 100 μL S-Medium containing 2.8 μM of recombinant tCPR-4 proteins (wild-type or mutant) or 0.27 μM recombinant human cathepsin B in a 96-well plate. Approximately 60 L4 larvae were transferred into each well of the plate. After being cultured in liquid media for 48 hours, these animals were scored for the numbers of germ cell corpses and mitotic nuclei. Quantification of germ cell corpses. L4 animals were cultured in liquid media in a 96-well plate as described above. After 48 hours, they were transferred to NGM plates and allowed to recover for 1 hour at 20° C. The animals were then anesthetized by 20 mM NaN3, mounted onto 2% agar pad, and scored under Nomarski optics. For transgenic animals expressing CPR-4 in the pharynx, L4 animals were grown on NGM plates for 24 hours at 20° C. before they were scored for germ cell corpses. Only the posterior arms of intact gonads were scored. Blind tests were carried out in all germ cell corpse quantification experiments.

The nature of series [4]: Protease activity of recombinant proteins in vitro. The series is classed as biochemical. The following applies: 2.8 μM tCPR-4 proteins, 0.27 μM rhCTSB; z-Arg-Arg-AMC. On the procedure: Measurement of protease activity in vitro. The CPR-4 enzymatic assays were performed following the method described previously with some modifications. The cathepsin B-specific fluorogenic substrate, Z-Arg-Arg-7-amido-4-methylcoumarin hydrochloride (z-Arg-Arg-AMC; Peptanova, catalog number 88937-61-5), was dissolved in 2×reaction buffer, containing 25 mM Tris-HCl (pH 8.0), 100 mM NaCl, 10% (v/v) Glycerol, 0.8 mM Sodium Acetate (pH6.0), and 8 mM EDTA. For the assays, 10 μL of proteins (100 ng/μL) or 10 μL of conditioned medium (100 ng/μL) were incubated with 10 μL of 20 μM z-Arg-Arg-AMC at 25° C. for 10 minutes before measuring the […]. Enzymatic activities were determined as the mean velocities at 25° C. in a dual luminescence fluorometer EnVision (Perkin-Elmer) at an excitation wavelength of 380 nm and an emission wavelength of 460 nm, and expressed as relative intensity in kilo relative fluorescence unit (kRFU). Recombinant human cathepsin B (rhCTSB; Sino Biological Inc., catalog number 10483-H08H-10) was dissolved in a buffer recommended by the manufacturer [25 mM Tris-HCl (pH 8.0), 100 mM NaCl, 10% (v/v) glycerol, 5 mM DTT, and 0.1% Triton-X]. The buffer control unique to the CPR-4 proteins or the rhCTSB protein, or the sham-irradiated conditioned medium, was also measured using the same procedures. S-Medium was used in each experiment as the background control.

[5] abbreviates: read-out: IC50 in inhibiting the CTSB protease activity.
Where [6] appears, read: read-out: IC50 in inhibiting CTSB.

The source of these data is patent US11452709B2, “Compositions and methods for preventing and treating radiation-induced bystander effects caused by radiation or radiotherapy” (The Regents of the University of Colorado, priority 2017, dated 2022).

Residue numbers refer to the chain shown, from its start. In names and notes the source's numbering stands. Read-outs that look alike come from different tables or passages of the source.

As a reminder, the inhibition is the percentage by which the read-out fell short of the control. The IC50 is the point on the concentration scale where inhibition reaches its midpoint. As usually defined, the EC50 is the concentration at which the effect is half-maximal.

For the molecule `CCCNC(=O)[C@H]1O[C@@H]1C(=O)N[C@H](C(=O)N1CCC[C@H]1C(=O)O)[C@@H](C)CC` (relative stereo) [CA074, N-(1-3-trans-propylcarbamoyloxirane-2-carbonyl)-1-isoleucyl-1-proline, reference compound], on CTSB protease, the “Inhibition rate (%) of the CTSB protease activity” value (“Inhibition rate (%)” below) is “best inhibitory effects” and the inhibition at 1000 µM was 91.8%. The “Bystander Phsp-4::gfp response in posterior unexposed regions after LUI at the head” value in series [1] is listed as “abolished the bystander Phsp-4::gfp response”.

In the case of `O=c1cc(-c2ccc(O)cc2)oc2cc(O)cc(O)c12` [Apigenin, 5,7-Dihydroxy-2-(4-hydroxyphenyl)-4H-1-benzopyran-4-one], on CTSB protease, the “Inhibition rate (%)” value was found to be 70.93% and the inhibition at 1000 µM was in the range of 65 to 85%.

In the case of `O=c1cc(-c2ccccc2)oc2cc(O)c(O)c(O)c12` [Baicalein, 5,6,7-Trihydroxy-2-phenyl-chromen-4-one], the inhibition at 1000 µM on CTSB protease is 65 to 85%; in series [2], 41.5%. Besides, on CTSB protease (setting [5]), the IC50 amounted to 870 nM.

For `CCCNC(=O)[C@H]1O[C@@H]1C(=O)N[C@H](C(=O)N1CCC[C@H]1C(=O)OC)[C@@H](C)CC` [CA074Me, CA074 methyl ester, reference compound], on CTSB protease, the “Inhibition rate (%)” value was “best inhibitory effects” and the inhibition at 1000 µM turned out to be 88.1%. On CTSB protease (setting [6]), the IC50 was at most 20 nM. In addition, on CTSB protease (setting [5]), the IC50 is below 10 nM. In addition, the “Bystander Phsp-4::gfp response in posterior unexposed regions after LUI at the head” value in series [1] is on record as “abolished the bystander Phsp-4::gfp response”.

In the case of `CC(C)C[C@H](NC(=O)[C@@H]1O[C@H]1C(=O)O)C(=O)NCCCCNC(=N)N` [E64, N—[N-(L-3-Trans-carboxirane-2-carbonyl)-L-leucyl]-agmatine, reference compound], the inhibition at 1000 µM at CTSB protease is 92.1%; in series [2] it was 89.6%. In addition, the IC50 was at most 20 nM on CTSB protease (setting [6]) and 20 nM on CTSB protease (setting [5]).

`Nc1nc2ncc(CNc3ccc(C(=O)N[C@@H](CCC(=O)O)C(=O)O)cc3)nc2c(=O)[nH]1` [Folic acid]: the “Enhancement of the activity of the CTSB protease” value on CTSB protease was “more than 4 folds”. The EC50 on CTSB protease (read-out: EC50 (activation of the CTSB protease)) is 1260 nM.

On to `O=c1c(O[C@@H]2O[C@H](CO)[C@@H](O)[C@H](O)[C@H]2O)c(-c2ccc(O)c(O)c2)oc2cc(O)cc(O)c12` [Isoquercitrin, 2-(3,4-Dihydroxyphenyl)-5,7-dihydroxy-3-[(2S,3R,4S,5S,6R)-3,4,5-trihydroxy-6-(hydroxymethyl)oxan-2-yl]oxychromen-4-one], for which, on CTSB protease, the “Inhibition of the activity of CTSB (in words)” value is recorded as “inhibit the activity of CTSB”, the “Inhibition rate (%)” value was 68.98% and the inhibition at 1000 µM was 65 to 85%.

For the molecule `O=c1c(O)c(-c2ccc(O)c(O)c2)oc2cc(O)cc(O)c12` [Quercetin, 2-(3,4-dihydroxyphenyl)-3,5,7-trihydroxy-4H-chromen-4-one], on CTSB protease, the “Inhibition of the activity of CTSB (in words)” value is listed as “inhibit the activity of CTSB”, the “Inhibition rate (%)” value came to 82.42% and the inhibition at 1000 µM lay within 65 to 85%. The IC50 on CTSB protease (setting [5]) was 1870 nM. Further, the inhibition at 1000 µM in series [2] is 80.7%.

`O=C(OC[C@H]1O[C@@H](OC(=O)c2cc(O)c(O)c(OC(=O)c3cc(O)c(O)c(O)c3)c2)[C@H](OC(=O)c2cc(O)c(O)c(OC(=O)c3cc(O)c(O)c(O)c3)c2)[C@@H](OC(=O)c2cc(O)c(O)c(OC(=O)c3cc(O)c(O)c(O)c3)c2)[C@@H]1OC(=O)c1cc(O)c(O)c(OC(=O)c2cc(O)c(O)c(O)c2)c1)c1cc(O)c(O)c(OC(=O)c2cc(O)c(O)c(O)c2)c1` [Tannic acid]: the inhibition at 1000 µM on CTSB protease is 69.3%.

With NH2-Arg-Leu-Ala-COOH—Se, on CTSB protease, the “Inhibition rate (%)” value was found to be 86.93%.

B1: tCPR-4(N301A): tCPR-4 with mutation N301A changing a non-catalytic residue (protein, UniProt P43508 81-335, looked up, variant N301A)
Cathepsin B-like cysteine …: T2 sequence (P43508 81-335) with N221A
For the molecule B1, the “Embryonic lethality of treated N2 animals” value (from here on “Embryonic lethality”) in the series with N2 animals was “increased embryonic lethality”. Further, the “Germ cell corpses in ced-1(e1735) animals” value (“Germ cell corpses” below) in series [3] was “reduced germ cell corpses”. For the same molecule, in series [4], the “Protease activity of recombinant protein” value is “did not affect tCPR-4 protease activity”.

B2: tCPR-4(H281A) (protein, UniProt P43508 81-335, looked up, variant H281A)
Cathepsin B-like cysteine …: T2 sequence (P43508 81-335) with H201A
For the molecule B2, the “Embryonic lethality” value with N2 animals was “failed to do so”. Besides, the “Germ cell corpses” value in series [3] is on record as “failed to do so”. For the same molecule, in series [4], the “Protease activity of recombinant protein” value is listed as “abolished the protease activity”.

B3: tCPR-4(C109A): tCPR-4 with mutation of the conserved catalytic Cysteine residue (protein, UniProt P43508 81-335, looked up, variant C109A)
Cathepsin B-like cysteine …: T2 sequence (P43508 81-335) with C29A
With B3, in the series with N2 animals, the “Embryonic lethality” value is given as “failed to do so”. In series [3], the “Germ cell corpses” value is “failed to do so”. Besides, the “Protease activity of recombinant protein” value in series [4] is reported as “abolished the protease activity”.
